The structures appear in SMILES notation. In brackets after ≈: the same amount, converted by molar mass. Structures can show the parent of a compound that is named as a salt. Where two headings read alike, the source gives them in different places.

Results on two compounds are retold here after EP0831826B1, “PHARMACEUTICAL COMPOSITION COMPRISING A PROTEINASE INHIBITOR AND A MONOGLYCERIDE” (F. HOFFMANN-LA ROCHE AG, priority 1995, dated 1996).

A short description of one data set: physchem. The settings on record: hcl, pH 1.1, solubility.

`CC(C)(C)NC(=O)[C@@H]1C[C@@H]2CCCC[C@@H]2CN1C[C@@H](O)[C@H](Cc1ccccc1)NC(=O)[C@H](CC(N)=O)NC(=O)c1ccc2ccccc2n1` [Compound A, N-tert.-butyl-decahydro-2-[2(R)-hydroxy-4-phenyl-3(S)-[[N-(2-quinolylcarbonyl)-L-asparaginyl]amino]butyl]-(4aS,8aS)-isoquinoline-3(S)-carboxamide]: the solubility is 50 µg/mL (≈ 74.5 µM) (hcl, pH 1.1); < 10 µg/mL (phosphate buffer, pH 5.4); 30 µg/mL (≈ 44.7 µM) (water).
Compound `CC(C)(C)NC(=O)[C@@H]1C[C@@H]2CCCC[C@@H]2CN1C[C@@H](O)[C@H](Cc1ccccc1)NC(=O)[C@H](CC(N)=O)NC(=O)c1ccc2ccccc2n1` [Compound A-mesylate salt] gave a solubility (phosphate buffer, pH 5.4) of 2320 µg/mL; a solubility (water) of 2550 µg/mL; a solubility in “physchem” of 60 µg/mL.

As usually defined, the solubility is the concentration that dissolves in the medium under given conditions. A lower solubility goes with a poorly soluble substance.
